Results from patent publication US11312727B1, “Macrocyclic flu endonuclease inhibitors” (Janssen BioPharma, Inc., priority 2018, dated 2022).

Tests used:
[1] = system: Influenza strain A549 A/WSN/33 (H1N1); assay: microbe, parasite or virus in culture; assay type: cell-based; details: Influenza A virus, A549, 20 h, A549 cells, influenza A/WSN/33 (H1N1), 20 hours incubation; read-out: A549_A(H1N1) EC50
in vitro = details: human, CC50, uninfected A549 cells, CellTiter-Glo

SMILES	EC50 [1]	CC50 (in vitro)
Cc1cccnc1[C@@H]1c2ccc(F)c(F)c2OC/C=C/C2(CCC2)N2CN1n1ccc(=O)c(O)c1C2=O (single isomer, unassigned) [Compound 171A, (18′*S,*E)-3′,4′-difluoro-12′-hydroxy-18′-(3-methylpyridin-2-yl)-6′H,18′H-spiro[cyclobutane-1,9′-[10,17]methanobenzo[b]pyrido[1,2-f][1]oxa[5,6,9]triazacyclotridecine]-11′,13′-dione]	1.3 nM	> 100 nM
CC[C@@H]1/C=C\COc2cccc3c2[C@@H](c2ccccc2SC3)N2CN1C(=O)c1c(O)c(=O)ccn12 [Compound 92BB, (13R,21aS,Z)-13-ethyl-16-hydroxy-6,10,13,21a-tetrahydro-7,8-(epiprop[1]en[1]yl[3]ylidene)-14,21-methanobenzo[6,7]thiepino[4,5-c]pyrido[1,2-f][1]oxa[5,6,9]triazacyclotridecine-15,17-dione]	1.5 nM	> 100 nM
O=C1c2c(O)c(=O)ccn2N2CN1C1(/C=C/COc3c(ccc(F)c3F)[C@@H]2c2ccccc2)CC1 [Compound 102B, (18'S,E)-3′,4′-difluoro-12′-hydroxy-18′-phenyl-6′H,18′H-spiro[cyclopropane-1,9′-[10,17]methanobenzo[b]pyrido[1,2-f][1]oxa[5,6,9]triazacyclotridecine]-11′,13′-dione]	3360 nM	33900 nM
O=C1c2c(O)c(=O)ccn2N2CN1C/C=C\COc1c(Cl)cccc1[C@@H]2c1ccccc1 (single isomer, unassigned) [Compound 75B, (18*S,Z)-4-chloro-12-hydroxy-18-phenyl-6,9-dihydro-18H-10,17-methanobenzo[b]pyrido[1,2-f][1]oxa[5,6,9]triazacyclotridecine-11,13-dione]	3 nM	> 200 nM
O=C1c2c(O)c(=O)ccn2N2CN1CC[C@@H]1C[C@@H]1COc1cccc3c1[C@@H]2c1ccccc1SC3 (single isomer, unassigned) [Compound 144AA, (1*R,13*S,15*S)-7-hydroxy-17-oxa-24-thia-2,3,10-triazaheptacyclo[16.12.1.12,10.03,8.013,15.022,31.025,30]dotriaconta-4,18,20,22(31),25(30),26,28-heptaene-6,9-dione]	> 100 nM	> 200 nM
C[C@@H]1/C=C/COc2c(ccc(F)c2F)[C@H](c2ccccc2)N2CN1C(=O)c1c(O)c(=O)ccn12 (single isomer, unassigned) [Compound 148BA, (9*R,18*S,*E)-3,4-difluoro-12-hydroxy-9-methyl-18-phenyl-6,9-dihydro-18H-10,17-methanobenzo[b]pyrido[1,2-f][1]oxa[5,6,9]triazacyclotridecine-11,13-dione]	2600 nM	> 10000 nM
O=C1c2c(O)c(=O)ccn2N2CN1[C@@H](C1CC1)/C=C/COc1c(ccc(F)c1F)[C@@H]2c1ccccc1 (single isomer, unassigned) [Compound 152AA, (9*S,18*S,*E)-9-cyclopropyl-3,4-difluoro-12-hydroxy-18-phenyl-6,9-dihydro-18H-10,17-methanobenzo[b]pyrido[1,2-f][1]oxa[5,6,9]triazacyclotridecine-11,13-dione]	> 50 nM	> 100 nM
O=C1c2c(O)c(=O)ccn2N2CN1C/C=C\CCc1ccncc1[C@@H]2c1ccccc1 (single isomer, unassigned) [Compound 35B, (18*S,*Z)-12-hydroxy-18-phenyl-5,6,9,18-tetrahydro-10,17-methanodipyrido[1,2-b:4′,3′-k][1,2,5]triazacyclotridecine-11,13-dione]	> 1000 nM	> 2000 nM
O=C1c2c(O)c(=O)ccn2N2CN1C1(/C=C/COc3c(F)cccc3[C@@H]2c2ccccc2)CCC1 (single isomer, unassigned) [Compound 145B, (18′*S,E)-4′-fluoro-12′-hydroxy-18′-phenyl-6′H,18′H-spiro[cyclobutane-1,9′-[10,17]methanobenzo[b]pyrido[1,2-f][1]oxa[5,6,9]triazacyclotridecine]-11′,13′-dionene]	310 nM	> 10000 nM
CC[C@H]1C/C=C/COc2c(F)cccc2[C@@H](c2ccccc2)N2CN1C(=O)c1c(O)c(=O)ccn12 (single isomer, unassigned) [Compound 105AA, (2*R,9*S,*E)-9-ethyl-33-fluoro-15-hydroxy-2-phenyl-12,13,14,16-tetrahydro-11H-4-oxa-1(1,3)-pyrido[2,1-f][1,2,4]triazina-3(1,2)-benzenacyclononaphan-6-ene-14,16-dione]	2.2 nM	> 200 nM
O=C1c2c(O)c(=O)ccn2N2CN1C/C=C\COc1ccccc1[C@H]2c1ccccc1 [Compound 5A, (18R,Z)-12-hydroxy-18-phenyl-6,9-dihydro-18H-10,17-methanobenzo[b]pyrido[1,2-f][1]oxa[5,6,9]triazacyclotridecine-11,13-dione]	8 nM	> 2000 nM
O=C1c2c(O)c(=O)ccn2N2CN1C[C@H]1C[C@@H]1COc1ccccc1[C@H]2c1ccccc1 (single isomer, unassigned) [Compound 80BA, (1a*S,8*R,17a*S)-14-hydroxy-8-phenyl-1a,2,17,17a-tetrahydro-1H,8H-9,16-methanobenzo[b]cyclopropa[k]pyrido[1,2-f][1]oxa[5,6,9]triazacyclotridecine-13,15-dione]	> 500 nM	> 1000 nM
O=C1c2c(O)c(=O)ccn2N2CN1C1(/C=C/COc3cccc4c3[C@H]2c2ccccc2SC4)CCC1 (single isomer, unassigned) [Compound 147B, (17a′*S,*E)-12′-hydroxy-2′,17a′-dihydro-6′H-spiro[cyclobutane-1,9′-[3,4](epiprop[1]en[1]yl[3]ylidene)[10,17]methanobenzo[6,7]thiepino[4,5-c]pyrido[1,2-f][1]oxa[5,6,9]triazacyclotridecine]-11′,13′-dione]	0.33 nM	> 100 nM
CC[C@H]1/C=C/COc2c(Cl)cccc2[C@H](c2ccccc2)N2CN1C(=O)c1c(O)c(=O)ccn12 (single isomer, unassigned) [Compound 98AA, (9*S,18*S,E)-4-chloro-9-ethyl-12-hydroxy-18-phenyl-6,9-dihydro-18H-10,17-methanobenzo[b]pyrido[1,2-f][1]oxa[5,6,9]triazacyclotridecine-11,13-dione]	> 500 nM	> 1000 nM
CC(C)[C@@H]1/C=C/COc2cc(F)c(F)c3c2[C@@H](c2ccccc2SC3)N2CN1C(=O)c1c(O)c(=O)ccn12 (single isomer, unassigned) [Compound 169AB, (9*R,17a*S,*E)-24,25-difluoro-12-hydroxy-9-isopropyl-2,6,9,17a-tetrahydro-3,4-(epiprop[1]en[1]yl[3]ylidene)-10,17-methanobenzo[6,7]thiepino[4,5-c]pyrido[1,2-f][1]oxa[5,6,9]triazacyclotridecine-11,13-dione]	> 50 nM	> 100 nM
O=C1c2c(O)c(=O)ccn2N2CN1C/C=C\COc1c(F)cccc1[C@H]2c1cccc(F)n1 (single isomer, unassigned) [Compound 104B, (18*S,*Z)-4-fluoro-18-(6-fluoropyridin-2-yl)-12-hydroxy-6,9-dihydro-18H-10,17-methanobenzo[b]pyrido[1,2-f][1]oxa[5,6,9]triazacyclotridecine-11,13-dione]	> 100 nM	> 200 nM
O=C1c2c(O)c(=O)ccn2N2CN1C[C@H]1C[C@@H]1COc1ccccc1[C@@H]2c1ccccc1 (single isomer, unassigned) [Compound 80AA, (1a*S,8*S,17a*S)-14-hydroxy-8-phenyl-1a,2,17,17a-tetrahydro-1H,8H-9,16-methanobenzo[b]cyclopropa[k]pyrido[1,2-f][1]oxa[5,6,9]triazacyclotridecine-13,15-dione]	167 nM	> 1000 nM
O=C1c2c(O)c(=O)ccn2N2CN1CC/C=C/COc1cc(F)c(F)c3c1[C@H]2c1ccccc1SC3 (single isomer, unassigned) [Compound 88D, (23b*S, E)-16,17-difluoro-6-hydroxy-10,13,18,23b-tetrahydro-9H-1,8-methano[1]benzothiepino[5,4,3-lm]pyrido[2,1-i][1,7,10,11]benzoxatriazacyclotetradecine-5,7-dione]	1 nM	> 100 nM
O=C1c2c(O)c(=O)ccn2N2CN1C/C=C\COc1ccc(F)cc1[C@@H]2c1ccccc1 (single isomer, unassigned) [Compound 22B, (18*S,Z)-2-fluoro-12-hydroxy-18-phenyl-6,9-dihydro-18H-10,17-methanobenzo[b]pyrido[1,2-f][1]oxa[5,6,9]triazacyclotridecine-11,13-dione]	12 nM	> 1000 nM
O=C1c2c(O)c(=O)ccn2N2CN1C/C=C\CCc1cnccc1[C@H]2c1ccccc1 (single isomer, unassigned) [Compound 56A, (18*R,*Z)-12-hydroxy-18-phenyl-5,6,9,18-tetrahydro-10,17-methanodipyrido[1,2-b:3′,4′-k][1,2,5]triazacyclotridecine-11,13-dione]	> 1000 nM	> 2000 nM
O=C1c2c(O)c(=O)ccn2N2CN1C/C=C\COc1c(Cl)cccc1[C@H]2c1ccccc1 (single isomer, unassigned) [Compound 75A, (18*R,Z)-4-chloro-12-hydroxy-18-phenyl-6,9-dihydro-18H-10,17-methanobenzo[b]pyrido[1,2-f][1]oxa[5,6,9]triazacyclotridecine-11,13-dione]	269 nM	> 2000 nM
O=C1c2c(O)c(=O)ccn2N2CN1C/C=C\COc1cc(F)c(F)cc1[C@@H]2c1ccccc1 (single isomer, unassigned) [Compound 41B, (18*S,Z)-2,3-difluoro-12-hydroxy-18-phenyl-6,9-dihydro-18H-10,17-methanobenzo[b]pyrido[1,2-f][1]oxa[5,6,9]triazacyclotridecine-11,13-dione]	6 nM	> 2000 nM
O=C1c2c(O)c(=O)ccn2N2CN1C/C=C/COCc1ccccc1C2c1ccccc1 (stereo not shown) [Compound 17, (E)-15-hydroxy-2-phenyl-12,13,14,16-tetrahydro-11H-5-oxa-1(1,3)-pyrido[2,1-f][1,2,4]triazina-3(1,2)-benzenacyclononaphan-7-ene-14,16-dione]	77 nM	> 20000 nM
